Results on twelve substances are retold here after patent US6127337A, “Bivalent thrombin inhibitors” (National Research Council of Canada, priority 1993, dated 2000).

Data set [1] has as its target T1, human thrombin (Homo sapiens, UniProt P00734).
T1 construct: Human α-thrombin (3,000 NIH units/mg); purchased Sigma
Nature of the data set: Inhibition of amidolytic activity of human thrombin (fluorogenic, Tos-Gly-Pro-Arg-AMC), Ki. Type of data set: biochemical. As for the experimental part: Materials. The chromogenic and fluorogenic substrates Tosyl-Gly-Pro-Arg-pNAand Tos-Gly-Pro-Arg-AMC were purchased from Boehringer Manheim and Sigma, respectively. […] Initial velocities were recorded at several inhibitor concentrations and kinetic parameters were determined by fitting the data to a general equation describing enzyme inhibition (Segel, 1975). The data were analyzed using the non-linear regression program RNLIN in the IMSL library (IMSL, 1987) on a microVAX™ 3500 computer. […] Fluorogenic assays were conducted using the same conditions and instrument as above operating in the fluorescence mode in the ratio (λex =383 nm, λem =455 nm) Fluorescence intensities were calibrated with 7-amino-4-methyl coumarin solution of known concentration
Determination of Thrombin Inhibitory Dissociation Constants KI
The steady-state velocity was then measured for a few minutes. The compounds of this invention were also pre-incubated with thrombin for 20 min at room temperature before adding the substrate. […] The kinetic data (the steady-state velocity at various concentrations of the substrate and the inhibitors) of the competitive inhibition was analyzed using the methods described by Segel (1975). A non-linear regression program, RNLIN in the IMSL library (IMSL, 1987), LMDER in MINPACK library (More et al., 1980) or Microsoft™ Excell™, was used to estimate the kinetic parameters (Km Vmax and Ki). The biological data are reported on tables I-V.

Data set [2] addresses T1, human thrombin. As to the kind of experiment: Fibrin clotting assay. In kind it is biochemical. The text has this:
Abbreviations. The following abbreviations have been used in the specification: Abu, γ-aminobutyric acid; Ac, acetyl; Aca, ε-aminocaproic acid; Aca*, 8-aminocapylic acid; Acha, 1-aminocyclohexane-carboxylic acid; Ada, 12-aminododecanoic acid; AMC, 7-amino-4-methylcoumarin; Aua, 11-aminoundecanoic acid; Ava, δ-aminovaleric acid; Bal, β-alanine; Boc, tert-butyloxycarbonyl; BrBzs, 4-bromobenzenesulfonyl; Bzs, benzene sulfonyl; Cha, β-cyclohexylalanine; Fmoc, 9-fluorenylmethoxycarbonyl;FRE, fibrinogen recognition exo site; HPLC, high performance liquid chromatography; MD805, (2R,4R)-4-methyl-1-[N^α -(3-methyl-1,2,3,4-tetrahydro-8-quinolinesulphonyl-glycyl)-L-arginyl]-2-piperidine carboxylic acid; NAPAP, N^α (2-naphtyl-sulphonyl)-D,L-p-amidinophenylalanyl-piperidide; Nas, naphtylsulfonyl; Nle, norleucine; 3-TAPAP, N^α -(4-toluene-sulphonyl)-D,L-p-amidinophenylalanyl-piperidide; OBzl, benzylester; Pip, pipecolic acid; PPACK, D-Phe-Pro-Arg chloromethylketone; tBbs, 4-tert-butylbenzenesulfonyl; Tic, 1,2,3,4-tetrahydroisoquinoline-3-carboxylic acid; TipBs, 2,4,6 triisopropylbenzenesulfonyl; TFA, trifluoroacetic acid; Tos, tosyl; Tris, 2-amino-2-(hydroxymethyl)-1,3-propanediol. All amino acid residues are L-configuration unless otherwise indicated. IC50 is defined as the inhibitor concentration required to double the clotting time relative to the control; means of three determinants ±SEM.
The fibrin clotting assay was performed in 50 mM Tris HCl buffer (pH 7.52 at 37° C.) containing 0.1 M NaCl and 0.1% poly(ethylene glycol) 8000 with 9.0×10^-10 M (0.1 NIH unit/mL) and 0.03% (w/v) of the final concentrations of human thrombin and bovine fibrinogen, respectively, as reported elsewhere (Szewczuk et al., 1992). The clotting time was plotted against the inhibitor concentrations and the IC50 was estimated as the inhibitor concentration required to double the clotting time relative to the control.

Data set [3] has as its system carotid injury-induced thrombosis. Nature of the data set: FeCl3 induced arterial injury model (carotid injury-induced thrombosis). In kind it is in vivo. The settings on record: rat; for Dose to double occlusion time: control occlusion time 19 ± 1 min; for Dose to achieve patency at 60 min.: patency defined by no drop in vessel temperature. As for the experimental part: […]: Rat, male, Sprague-Dawley. Weight: 375-450 g The FeCl3 induced arterial injury model assays were conducted according to Kurz, K. D., Main, […]., Thrombosis research 60; 269-280, 1990 and Schumacher, W. A. et al. J. pharmacology and experimental therapeutics 267; 1237-1242, 1993. Male, Sprague-Dawley (375-450 g) are anesthetized with Urethane (1500 mg/kg IP). Animals are laid on a heating pad which is maintained at 37° C. The carotid artery is approached through a midline cervical incision. Carefully blunt dissection is used to expose and isolate the vessel from the carotid sheath. Using forceps, the artery is lifted to provide clearance to insert two small polyethylene tubing (PE-205) underneath it. The temperature probe (Physitemp MT23/3 )TM is placed between the PE-205 and the artery. The vessel temperature is monitored for 60 minutes after application of FeCl3. Vessel temperature changes are recorded on a thermister (Cole-Palmer Model 08533-41). Injury is induced by application of a small disc (3 mm dia.) of WhatmanTM No.1 filter paper previously dipped in a 35% solution of FeCl3 on the carotid artery above the temperature probe. The site of the experiment is covered with in Aluminum foil in order to protect the FeCl3 from degradation by light. […] Before the start of the experiment, one blood sample is drawn (1 ml) in a tube of 0.105M buffered citrate solution (from the eye's sinus) and the animal is exsanguinated at the end. All the samples are kept on ice and centrifuged as soon as possible at 2000 Rpm for 10 min., 4° C. The plasma is analyzed in duplicate for activated partial thromboplastin time on a haemostasis analyzer (STAGO ST4TM). From a group of four animals, two arteries are stored at -80C for further analysis.

The conditions of data set [4]: given intravenously or subcutaneously, depending on the species; cited from earlier work.
Setting [5] is: Table I, active site directed inhibitors, human thrombin 6.0×10^-11 M, substrate 1-8×10^-5 M, read-out: Ki.
Where [6] appears, read: Table I, inhibitor concentration required to double the clotting time, means of three ±SEM, read-out: IC50.
Setting [7] is: Table V, concentration to double the clotting time, read-out: IC50 (dtt).
[8] abbreviates: Table II, various active site inhibitor segments, human thrombin 3.0×10^-11 M, read-out: Ki.

“And” between values parts separate entries of the source, which are not always exact repeats. Equal entries are not always repeated. Where two headings read alike, the source gives them in different places. A value given as a limit tells only on which side of the number the result lay.

As a reminder, the Ki is a dissociation constant, usually derived from enzyme kinetics or from competition with a known ligand. One may read the IC50 as the midpoint of a concentration-inhibition curve. On to “Dansyl-Arg-(D-Pipecolic acid)-Abu-NH2 [Peptide P431]”, for which the Ki on human thrombin [1] (setting [5]) stood at 980 ± 130 nM. The IC50 on human thrombin [2] (setting [6]) amounted to 2580 ± 680 nM.
For “Dansyl-Arg-(D-Pipecolic acid)-NH2 [Peptide P429]”, in that order: 158 ± 57 nM and 430 ± 130 nM.
Turning to “2,4,6 triisopropylbenzensulfonyl-Arg (D-Pipecolic acid)-(12-aminododecanoicacid)-4-aminobutyric acid)-Asp-Phe-Glu-Pro-Ile-Pro-Tyr-OH [BCH-2444]”, the Ki at human thrombin [1] (Table V, read-out: Ki) was determined as 5.5 nM. On human thrombin [2] (setting [7]), the concentration for half-maximal inhibition (IC50) was 55 nM.
Consider “4-bromobenzenesulfonyl-Arg (D-Pipecolic acid)-(12-aminododecanoic acid)-4-aminobutyric acid)- Asp-Phe-Glu-Pro-Ile-Pro-Tyr-OH [BCH-2733]”, for which the Ki at human thrombin [1] (Table V, read-out: Ki) turned out to be 0.8 nM. Further, the inhibition constant (Ki) on human thrombin [1] (read-out: Ki value) is < 1 nM and 0.8 nM. For the same substance, the IC50 at human thrombin [2] (setting [7]) turned out to be 4.1 nM. Moreover, in data set [3], the “Dose to double occlusion time” value was more than 2 mg/kg i.v. bolus and the “Dose to achieve patency at 60 min.” value is more than 2 mg/kg i.v. bolus.
What is called half-life is the time in which the quantity being followed falls by half. For Hirudin, the half-life in data set [4] was 30 to 60 min.
On to “tert-butylbezenesulfonyl-Arg (D-Pipecolic acid)-(12-aminododecanoic acid)-4-aminobutyric acid)-Asp-Phe-Glu-Pro-Ile-Pro-Tyr-OH [BCH-2443]”, for which the Ki on human thrombin [1] (Table V, read-out: Ki) turned out to be 1 nM. For the same substance, at human thrombin [2] (setting [7]), the IC50 amounted to 12 nM. Moreover, in data set [3], the “Dose to double occlusion time” value is more than 4 mg/kg i.v. bolus and the “Dose to achieve patency at 60 min.” value is more than 4 mg/kg i.v. bolus.
On to “tert-butylbezenesulfonyl-Arg (D-Pipecolic acid)-(12-aminododecanoic acid)-4-aminobutyric acid)-Asp-Phe-Glu-Pro-Ile-Pro-Tyr-OH [BCH-2736]”, for which the Ki at human thrombin [1] (Table V, read-out: Ki) is 270 nM. In addition, the 50% inhibitory concentration (IC50) at human thrombin [2] (setting [7]) was 1100 nM. For the same substance, in data set [3], the “Dose to double occlusion time” value is on record as 4 mg/kg i.v. bolus and the “Dose to achieve patency at 60 min.” value is reported as more than 4 mg/kg i.v. bolus.
Turning to Dansyl-Arg-(L-Pip)-NH2 [Peptide P428], the Ki at human thrombin [1] (setting [5]) amounted to 19100 ± 1300 nM. Besides, at human thrombin [2] (setting [6]), the IC50 came out at 37900 ± 1900 nM.
With “Dansyl-Arg-(L-Pip)-Abu-NH2 [Peptide P430]”, the inhibition constant Ki at human thrombin [1] (setting [5]) was found to be 11600 ± 3300 nM. In addition, on human thrombin [2] (setting [6]), the IC50 was found to be 39100 ± 7200 nM.
Take “β-naphthyl sulfonyl-Arg-(D-Pipecolic acid)-(12-aminododecanoic acid)-4-aminobutyric acid)-Asp-Phe-Glu-Glu-Ile-Pro-Glu-Glu-Tyr-Leu-Gln-OH [Peptide P532]”: the Ki at human thrombin [1] (setting [8]) was 0.024 ± 0.004 nM. In data set [3], the “Dose to double occlusion time” value is reported as 0.5-1 mg/kg i.v. bolus and the “Dose to achieve patency at 60 min.” value was 1-2 mg/kg i.v. bolus.
As to Dansyl-Arg-(D-Tic)-NH2 [Peptide P396], the inhibition constant (Ki) on human thrombin [1] (setting [5]) turned out to be 390 ± 20 nM. Further, the IC50 at human thrombin [2] (setting [6]) came out at 820 ± 150 nM.
Turning to “α-naphthyl sulfonyl-Arg-(D-Pipecolic acid)-(12-aminododecanoic acid)-4-aminobutyric acid)-Asp-Phe-Glu-Glu-Ile-Pro-Glu-Glu-Tyr-Leu-Gln-OH [Peptide P531]”, the Ki on human thrombin [1] (setting [8]) was determined as 0.032 ± 0.001 nM. Besides, in data set [3], the “Dose to double occlusion time” value is on record as 0.5 mg/kg i.v. bolus and the “Dose to achieve patency at 60 min.” value is given as more than 2 mg/kg i.v. bolus.
